Some test systems named below: RXF-631 renal; MDA-N; P388/ADR leukemia; P388 leukemia; SN12K1 renal.
What all share (assay): NCI tumour cell line growth inhibition, 48 h

“And” between values parts separate entries of the source, which are not always exact repeats. Identical values can stand only once.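 Method: 48-hour compound exposure of cells in 96-well plates, five concentrations, linear interpolation of endpoints. GI50 is the concentration that inhibits growth by half. The concentration for full growth arrest is given as TGI.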 The source made the active and inactive calls. Cut-off read from the data, not from the text of the source: active = GI50 below about 0.43 µM; inactive = the rest. A value given as a limit tells only on which side of the number the result lay.

The values below come from PubChem BioAssay (NCI).

As to `CCN(CC)c1ccc(N=Nc2ccc(-c3nc4ccc[n+](C)c4o3)cc2)cc1`, the TGI in the assay with RXF-631 renal was greater than 100 µM.

As for `S=P(N1CC1)(N1CC1)N1CC1`, the GI50 with MDA-N was 257 µM. The TGI was 426 µM and 671 µM in the assay on MDA-N; 351 µM with P388/ADR leukemia; 328 µM with P388 leukemia; 373 µM in the assay on SN12K1 renal.

Turning to `C=C(c1ccccc1)[C@@]1(O)CC[C@@H]1N(CC#N)Cc1ccccc1`, the TGI in the assay on MDA-N is 40 µM.

Compound `Cn1cc2ccccc2c1-c1nc(F)nc(OCC(=O)[C@H]2CCC3[C@@H]4CCC5=CC(=O)CC[C@]5(C)C4[C@@H](O)C[C@@]32C)n1` (stereo not given in full) displayed a TGI with RXF-631 renal of 6.82 µM.

Turning to `C=CC(Cl)(CBr)CCC(Br)C(C)(C)Cl` (stereo not given), in the assay on MDA-N, the TGI was 32.4 µM.

`CN(C)CC/[N+]([O-])=C(/c1ccccc1)C12CC3CC(CC(C3)C1)C2` registered a TGI with RXF-631 renal of 32.8 µM.

In the assay with RXF-631 renal, `COc1ccc(OCC(=O)O)c(C(=O)CCC(=O)O)c1` registered a TGI greater than 100 µM.

In the case of `CC(C)CC(NC(=O)OC(C)(C)C)C(=O)Nc1ccc(Nc2nc(F)nc(-c3c4ccccc4cn3C)n2)cc1` (stereo not given), the TGI in the assay on MDA-N was greater than 100 µM.

For `CC1(C)C2C=CC1C(=O)CC2` (stereo not given), in the assay with RXF-631 renal, the TGI was greater than 100 µM.

In the case of `CC(=O)OCC1OC(n2c(-c3ccc(C)cc3)cc(-c3ccccc3)c(C#N)c2=O)C(OC(C)=O)C(OC(C)=O)C1OC(C)=O` (stereo not given), the TGI in the assay with RXF-631 renal was greater than 100 µM.

Compound `C=C(Br)CNC(=O)CCC(=O)NCC(=C)Br` returned a TGI in the assay with MDA-N greater than 100 µM.

In the case of `CO/N=C(\C)CCC#Cc1ccccc1C(=O)OC`, the TGI in the assay on MDA-N was greater than 10 µM.

For `O=C(O)C1CC(O)CN1` (stereo not given), in the assay on MDA-N, the TGI is greater than 100 µM.

`Cc1cc2c(C)nn(Cc3ccc(Cl)cc3)c2c(C#N)c1C` registered a TGI in the assay with RXF-631 renal greater than 100 µM.

Turning to `CCCCCCCc1cc2c3c(nc4ccccc42)C(=O)c2cccnc2-c3n1`, in the assay with MDA-N, the GI50 is 4.44 µM and the TGI came to 9.12 µM.

With `NCCCNCCCCNC(=O)C(O)NC(=O)CCCCCCN=C(N)N` (stereo not given), the GI50 in the assay on MDA-N was greater than 750 µM. In addition, the TGI in the assay with MDA-N is greater than 5000 µM; with P388/ADR leukemia it was 750 µM; in the assay on P388 leukemia, 511 µM; with SN12K1 renal it was 750 µM.

Take `Cc1cc(C)c(-n2c(-c3ccc(Br)cc3)cs/c2=N\N=C2C=C(C(C)(C)C)C(=O)C(C(C)(C)C)=C2)c(C)c1`: the TGI with MDA-N and with RXF-631 renal was greater than 100 µM throughout.

In turn, `CC1(C)CCC[C@]2(C)[C@H]3[C@H](C#N)c4cc(O)c(O)cc4O[C@@]3(C)CC[C@@H]12` yielded a TGI with MDA-N greater than 10 µM.

On to `CSc1nc(SC)c2c(CO)c(Br)n(Cc3ccccc3)c2n1`, for which the TGI in the assay with MDA-N is greater than 100 µM.

`COc1cccc(/C=N/C(/N=C/c2cccc(OC)c2O)c2cccc(OC)c2O)c1O` registered a TGI with MDA-N greater than 100 µM.

In the case of `CCCSS[C@H]1NC(=O)[C@H]1NC(=O)COc1ccccc1`, the TGI with RXF-631 renal worked out at 31.6 µM.

Turning to `CC(C(O)c1ccccc1)C(O)(C(F)(F)F)C(F)(F)F` (stereo not given), in the assay on MDA-N, the TGI was greater than 100 µM.

Regarding `Cc1cc(C)cc(NC(N)=S)c1`, in the assay on RXF-631 renal, the TGI was greater than 100 µM.

Compound `O=c1c(O)c(-c2cc(O)c(O)c(O)c2)oc2cc(O)cc(O)c12` had a TGI in the assay with MDA-N of 24.5 µM.

Consider `COc1ccc(C2ON(c3cccc(C)n3)CC=C2C)cc1` (stereo not given), for which the TGI with RXF-631 renal is greater than 100 µM.

As for `COC(C)(C)C/C=C/C(C)=C/C=C/C(C)=C\C=C\C(C)=C\C=C\C=C(C)\C=C\C=C(C)\C=C\C=C(C)\C=C\CC(C)(C)OC`, in the assay with RXF-631 renal, the result was inactive.

With `CN(Cc1cc(C(C)(C)C)cc(Br)c1O)Cc1cc(C(C)(C)C)cc(Br)c1O`, the TGI with MDA-N amounted to 15.9 µM.

Turning to `CN(C)CCNC(=O)c1ccc(NC(=O)c2nc([N+](=O)[O-])cn2C)cc1`, the TGI in the assay with MDA-N is greater than 100 µM.

In turn, `COC(=O)/C=C/c1cc2c(cc1-c1c(C(=O)O)cc(OC)c(OC)c1OC)OCO2` yielded a TGI in the assay on MDA-N greater than 10 µM.

In turn, `CCOc1ccc2nc(NC(=O)C(=O)C(c3cnc4ccccc4n3)[N+](=O)[O-])sc2c1` (stereo not given) gave a TGI in the assay on MDA-N greater than 100 µM.
